Source: US11028051B2, “Tetrahydroquinoline-based bromodomain inhibitors” (St. Jude Children's Research Hospital, priority 2016, dated 2021)

How the values were obtained:
Test in all cases: competitive TR-FRET assay, BET-BD with acetylated peptide ligand
Assay type in all cases: binding
BRD2-BD1 = BRD2-BD1 (Homo sapiens (Human), UniProt P25440); settings: BRD2-BD1; Table 11 additional modifications; read-out: 2.1 EC50
Method: (§1) Inhibitor potency was determined using a competitive TR-FRET assay as detailed herein, measuring interaction of the respective BET-BD with an acetylated peptide ligand (Table 2).

BRD2-BD2 = BRD2-BD2 (Homo sapiens (Human), UniProt P25440); settings: for EC50: BRD2-BD2, Table 11 additional modifications, read-out: 2.2 EC50; for 2.1/2.2: ratio of BRD2-BD1 EC50 to BRD2-BD2 EC50 (selectivity)
BRD2-BD2, sequence (P25440 344-453): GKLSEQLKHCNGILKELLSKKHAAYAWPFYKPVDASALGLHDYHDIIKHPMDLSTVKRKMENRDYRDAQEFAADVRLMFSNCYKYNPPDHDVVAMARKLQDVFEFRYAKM
Method: as §1

BRD3-BD1 = BRD3-BD1 (Homo sapiens (Human), UniProt Q15059); settings: BRD3-BD1; Table 11 additional modifications; read-out: 3.1 EC50
BRD3-BD1, sequence (Q15059 34-140): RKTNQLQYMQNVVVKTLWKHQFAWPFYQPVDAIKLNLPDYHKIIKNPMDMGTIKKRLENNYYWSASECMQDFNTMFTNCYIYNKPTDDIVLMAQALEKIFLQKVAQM
Method: as §1

BRDT = BRDT (Homo sapiens, UniProt Q58F21); settings: BRDT; Table 11 additional modifications; read-out: BRDT EC50
Method: as §1

BRD2-BD1, sequence (P25440 74-180): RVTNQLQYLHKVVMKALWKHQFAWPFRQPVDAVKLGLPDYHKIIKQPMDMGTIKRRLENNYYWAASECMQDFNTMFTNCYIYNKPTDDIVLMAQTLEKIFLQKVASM

| EC50 (BRD2-BD1) | EC50 (BRD2-BD2) | 2.1/2.2 (BRD2-BD2) | EC50 (BRD3-BD1) | EC50 (BRDT) | SMILES |
| --- | --- | --- | --- | --- | --- |
| 1.3 µM | 0.14 µM | 10 | 1 µM | 3.6 µM | CC(=O)N(C)c1cccc(-c2ccc3c(c2)[C@H](Nc2ccc(Cl)cc2)C[C@H](C)N3C(C)=O)c1 [compound 149] |
| 72 µM | 22 µM | 13 | > 72 µM | > 72 µM | CCCCCN(CCCCC)c1cccc(-c2ccc3c(c2)[C@H](Nc2ccccc2OC(F)(F)F)C[C@H](C)N3C(C)=O)c1 [compound 150] |
| 14 µM | 0.67 µM | 49 | 8.3 µM | 26 µM | CC(=O)N1c2ccc(-c3cccc(NCC4CCOC4)c3)cc2[C@H](Nc2ccccc2OC(F)(F)F)C[C@@H]1C (stereo partly shown) [compound 151] |
| 79 µM | 8.4 µM |  | 78 µM | > 79 µM | CC(=O)N1c2ccc(-c3cccc(N(CC4CC4)CC4CC4)c3)cc2[C@H](Nc2ccccc2OC(F)(F)F)C[C@@H]1C [compound 152] |
| 90 µM | 1.7 µM | 8.2 | 39 µM | > 90 µM | CC(=O)N1c2ccc(-c3cccc(NCCC(F)(F)F)c3)cc2[C@H](Nc2ccccc2OC(F)(F)F)C[C@@H]1C [compound 153] |

Continued, molecule first:

| SMILES | EC50 (BRD2-BD1) | EC50 (BRD2-BD2) | 2.1/2.2 (BRD2-BD2) | EC50 (BRD3-BD1) | EC50 (BRDT) |
| --- | --- | --- | --- | --- | --- |
| C#CCCCC(=O)Nc1cccc(-c2ccc3c(c2)[C@H](Nc2ccc(C(=O)OC)cc2)C[C@H](C)N3C(C)=O)c1 [compound 138] | 4.6 µM | 0.09 µM | 36 | 1.8 µM | 8.7 µM |
| C#CCCNC(=O)c1ccc(N[C@@H]2C[C@H](C)N(C(C)=O)c3ccc(-c4cccc(NC(C)=O)c4)cc32)cc1 [compound 139] | 0.79 µM | 0.23 µM | 3.4 | 0.69 µM | 1.9 µM |
| CC(=O)N1c2ccc(-c3cccc(-n4cccn4)c3)cc2[C@H](Nc2ccccc2OC(F)(F)F)C[C@@H]1C [compound 140] | 21 µM | 1.4 µM | 22.9 | 31 µM | > 82 µM |
| COC(=O)c1ccc(N[C@@H]2C[C@H](C)N(C(C)=O)c3ccc(-c4cccc(NCC5CC5)c4)cc32)cc1 [compound 141] | 2.5 µM | 0.5 µM | 0.015 | 1.7 µM | 5.2 µM |
| COC(=O)c1ccc(N[C@@H]2C[C@H](C)N(C(C)=O)c3ccc(-c4cccc(NCCC(C)C)c4)cc32)cc1 [compound 142] | 2.5 µM | 0.23 µM | 52 | 2.5 µM | 8.3 µM |
| CCCCN(CCCC)c1cccc(-c2ccc3c(c2)[C@H](Nc2ccc(C(=O)OC)cc2)C[C@H](C)N3C(C)=O)c1 [compound 143] | 8 µM | 1.1 µM | 93 | 11 µM | 34 µM |
| COC(=O)c1ccc(N[C@@H]2C[C@H](C)N(C(C)=O)c3ccc(-c4ccnn4C)cc32)cc1 [compound 144] | 3.8 µM | 0.29 µM | 7.0 | 3.1 µM | 15 µM |
| CC(=O)N1c2ccc(-c3ccnn3C)cc2[C@H](Nc2ccccc2OC(F)(F)F)C[C@@H]1C [compound 145] | 19 µM | 0.39 µM | 5.0 | 21 µM | > 58 µM |
| CCCCN(CCCC)c1cccc(-c2ccc3c(c2)[C@H](Nc2ccccc2OC(F)(F)F)C[C@H](C)N3C(C)=O)c1 [compound 146] | 78 µM | 9.6 µM | 22 | > 78 µM | > 78 µM |
| COc1cccc(-c2ccc3c(c2)[C@H](Nc2ccc(Cl)cc2)C[C@H](C)N3C(C)=O)c1 [compound 147] | 7.2 µM | 1.6 µM | 7.4 | 9.4 µM | 17 µM |
| CC(=O)N1c2ccc(-c3cccc(N(CCC(C)C)CCC(C)C)c3)cc2[C@H](Nc2ccccc2OC(F)(F)F)C[C@@H]1C [compound 148] | 90 µM | 34 µM | 16 | > 90 µM | > 90 µM |
